Patent US20130172244A1, “SUBCUTANEOUS THERAPEUTIC USE OF DPP-4 INHIBITOR” (priority 2011, published 2013)
Ends that are not written are not given here.

How the values were obtained:
[1] = system: DIO male Sprague-Dawley rats; assay: Chronic s.c. dosing, body weight and food intake in diet-induced obese (DIO) rats; format: in vivo; details: DIO rat, s.c. twice daily
Procedure: (§1) However, it is not known whether DPP-IV inhibition in conjunction with glucagon-like peptide (GLP)-1 administration would influence body weight.
(§2) Materials and methods: Normal-weight and DIO male Sprague-Dawley rats were used for acute and chronic dosing experiments, respectively. All rats were stratified to treatment groups according to individual body weight and whole-body fat mass. Linagliptin+GLP-1 combination treatment was evaluated in both acute and chronic treatment settings and compared with monotherapy and vehicle controls. […] For comparison, DIO rats were exposed to 28 days of liraglutide monotherapy. All drugs were administered twice daily subcutaneously (s.c.). […] In comparison, chronic liraglutide (0.2 mg/kg) treatment evoked a long-lasting hypophagic response with a weight loss of −10.8±0.5% and 12.2±0.6% at day 14 and 28, respectively.

[2] = system: normal-weight male Sprague-Dawley rats; assay: Acute s.c. dosing, nocturnal food intake in normal-weight rats; format: in vivo; details: linagliptin 0.1-0.5 mg/kg, GLP-1 0.2-0.4 mg/kg
Procedure: as §1, §2

RIP-B7.1 tg mice = assay: Diabetes development in RIP-B7.1 transgenic mice after proinsulin/insulin A-chain plasmid vaccination; format: in vivo
From the text: Dipeptidyl peptidase (DPP)-4 inhibitors block incretin degradation by DPP-4. […] As in humans, diabetes development in this model critically depends on activated CD8 T cells. Diabetes develops in RIP-B7.1 tg mice after a single intramuscular (i.m.) vaccination (vac) of proinsulin (PI) plasmid DNA.
Vac A: Diabetes is induced using a PI-encoding plasmid resulting in an aggressive insulitis. Vac B: vac with insulin A-chain encoding plasmid results in a delayed diabetes development compared to vac A. With vac A (n=20 tg mice), diabetes incidence is 80% 5 weeks after vac, whereas vac B (n=34) results in 79% incidence after 12 wks in placebotreated mice.

[3] = system: non-obese-diabetic (NOD) mice; assay: Onset of diabetes and beta-cell mass in non-obese-diabetic (NOD) mice; format: in vivo; details: female NOD mice
From the text: Though reduced pancreatic T-cell migration and altered cytokine production is considered important players for the onset of insulinitis the exact mechanism and effects on the pancreatic cell pool is still incompletely understood.
Bi-weekly plasma samples are obtained to determine onset of diabetes (BG>11 mmol/l).

[4] = Safety and tolerability in people with type 2 diabetes
[5] = Pharmacokinetics of BI 1356 in patients with type 2 diabetes, multiple oral doses once daily for 12 days
[6] = system: rats fed a high-fat diet (diet induced obesity); assay: Chronic treatment in non-diabetic model of diet induced obesity: body weight, total body fat, liver fat, intramyocellular fat (MRS); format: in vivo; details: 6 weeks, linagliptin 10 mg/kg, sibutramine 5 mg/kg; for Body weight % baseli. / Intra-myocellular fat % baseli. / Liver fat % baseli. / Total body fat % baseli.: versus baseline; for Body weight % contr. / Intra-myocellular fat % contr. / Liver fat % contr. / Total body fat % contr.: versus control; for Intra-myocellular fat % baseli. / Liver fat % baseli. / Total body fat % baseli. / Intra-myocellular fat % contr. / Liver fat % contr. / Total body fat % contr.: MRS
Procedure: Magnetic resonance spectroscopy (MRS) analysis of total body fat, muscle fat, and liver fat is performed before treatment and at the end of the study.

clinical = details: human, urine, po
[7] = 2 h postprandial blood glucose excursions in patients with type 2 diabetes; format: in vivo, human; details: Day 1; oral doses ≧2.5 mg
[8] = 2.5 mg oral once daily, steady state (Day 12), gMean (gCV)
[9] = 10 mg oral once daily, steady state (Day 12), gMean (gCV)

In the case of “GLP-1: native glucagon-like peptide (GLP)-1 (7-36) (HAEGTFTSDVSSYLEGQAAKEFIAWLVKGR; ends and bridges not checked; UniProt P01275 98-127, looked up)”, the “effect of 14 days of monotherapy” value [1] is reported as “no effect” and the “effect on nocturnal food intake” value [2] is reported as “rapid-onset suppression of food intake”.
For `CC#CCn1c(N2CCC[C@@H](N)C2)nc2c1c(=O)n(Cc1nc(C)c3ccccc3n1)c(=O)n2C` [linagliptin], the “Serum levels of the regulatory cytokine IL-10” value (RIP-B7.1 tg mice; linagliptin 3 mg/kg/day oral) was “significantly upregulated”, the “islet insulin content after diabetes onset” value (RIP-B7.1 tg mice; linagliptin 3 mg/kg/day oral) was “partially preserved” and the “number of islet antigen-specific CD8 T cells expressing IFN-γ (FACS and ELISPOT)” value (RIP-B7.1 tg mice; linagliptin 3 mg/kg/day oral versus placebo) was “equal number”. For the same molecule, the diabetes incidence (RIP-B7.1 tg mice; vac A (PI-encoding plasmid), after wk 8 of follow-up, linagliptin 3 mg/kg/day oral, placebo 80% at 5 wks) was 80%, the diabetes incidence (RIP-B7.1 tg mice; vac B (insulin A-chain plasmid), during 14 wks follow up, linagliptin 3 mg/kg/day oral, control 92% wk 14) was at most 62% and the “effect of 14 days of monotherapy” value [1] was “no effect”. The “effect on nocturnal food intake” value [2] was “no effect”, the “incidence of diabetes (BG>11 mmol/l) at the end of the study period” value ([3]; 60 days, diet with 0.083 g linagliptin/kg chow (3-10 mg/kg p.o.), control 18 of 30) was 9 out of 30 and the “beta cell mass (insulin immunoreactivity, stereology)” value ([3]; 60 days, linagliptin in diet, vehicle 0.18±0.03) was 0.48±0.09 mg. The total islet mass ([3]; 60 days, linagliptin in diet, vehicle 0.40±0.04) was 0.70 ± 0.09 mg, the peri-islet infiltrating lymphocytes ([3]; 60 days, linagliptin in diet, vehicle 1.06±0.15) was 0.79 ± 0.12 mg and the “active plasma GLP-1 at termination” value ([3]; versus control) was “higher”. The safety and tolerability [4] was “placebo-like safety and tolerability”, the “feT,ss” value ([5]; 1 mg oral once daily, steady state (Day 12), gMean (gCV)) was 3.34 (38.3) % and the fe0-24 ([5]; 2.5 mg oral once daily for 12 days, gMean (gCV)) was 0.139 (51.2) %. For the same molecule, the “AUCT,ss” value [5, 8] was 117 (16.3) nmol · h/L, the “feT,ss” value [5, 8] was 3.06 (45.1) % and the fe0-24 ([5]; 5 mg oral once daily for 12 days, gMean (gCV)) was 0.453 (125) %. For the same molecule, the “feT,ss” value ([5]; 5 mg oral once daily, steady state (Day 12), gMean (gCV)) was 6.27 (42.2) %, the fe0-24 ([5]; 10 mg oral once daily for 12 days, gMean (gCV)) was 0.919 (115) % and the “T1/2,ss” value [5, 9] was 130 (11.7) h. For the same molecule, the “feT,ss” value [5, 9] was 3.22 (34.2) %, the “form and path of excretion” value ([5]; human, in vivo) was “primarily excreted unchanged via the bile” and the “mean accumulation ratio RA,AUC” value ([5]; oral doses above 1 mg once daily) was at most 1.4. For the same molecule, the “fraction excreted via the kidney” value ([5]; therapeutic oral dose levels) was < 7 % of the administered oral dose, the “main route of excretion” value ([5]; therapeutic oral dose levels) was “mainly excreted via the liver” and the “Body weight % baseli.” value [6] was “+12%”. For the same molecule, the “Body weight % contr.” value [6] was −3%, the “Body weight % contr.” value ([6]; listed as Linagliptin) was −3% and the “Intra-myocellular fat % baseli.” value [6] was −24%. The “Liver fat % baseli.” value [6] was −30%, the “Total body fat % baseli.” value [6] was “+5%” and the “Intra-myocellular fat % baseli.” value ([6]; listed as Linagliptin) was −24%. The “Intra-myocellular fat % contr.” value [6] was −36%, the “Liver fat % contr.” value [6] was −39% and the “Total body fat % contr.” value [6] was −5%. The “Liver fat % contr.” value ([6]; listed as Linagliptin) was −39%, the “Total body fat % contr.” value ([6]; listed as Linagliptin) was −5% and the CL renal (clinical) was 14 to 70 mL/min. For the same molecule, the CL renal (clinical; 5 mg) was about 70 mL/min and the “decrease in 2 h postprandial blood glucose excursions” value [7] was at least 80%.
For `CC(C)CC(N(C)C)C1(c2ccc(Cl)cc2)CCC1` (stereo not drawn) [Sibutramine, reference compound], the “Body weight % baseli.” value [6] was “+1%”, the “Body weight % contr.” value [6] was −12% and the “Intra-myocellular fat % baseli.” value [6] was −34%. The “Liver fat % baseli.” value [6] was −29%, the “Total body fat % baseli.” value [6] was −0.4% and the “Intra-myocellular fat % baseli.” value ([6]; listed as sibutramine) was −34%. For the same molecule, the “Intra-myocellular fat % contr.” value [6] was −55%, the “Liver fat % contr.” value [6] was −30% and the “Total body fat % contr.” value [6] was −12%. The “Liver fat % contr.” value ([6]; listed as sibutramine) was −30% and the “Total body fat % contr.” value ([6]; listed as sibutramine) was −12%.
